# ChEMBL document CHEMBL6134887, “Linker and Head-Group Exploration of Anti-MRSA Triaromatic Pleuromutilins” (J Med Chem, 2025)
# Tests used:
# Staphylococcus aureus = assay: Antibacterial activity against methicillin resistant Staphylococcus aureus USA300 FPR3757 assessed as inhibition of bacterial growth incubated for 20 to 24 hrs by microbroth serial dilution method; format: functional; details: time 20-24 hrs, read-out: MIC100
# [1] = Metabolic stability in human liver assessed as intrinsic clearance at 1 uM measured up to 30 mins by LC-MS/MS analysis; format: ADME, tissue-based; details: read-out: CLH
# [2] = Metabolic stability in human liver microsomes assessed as half-life at 1 uM measured up to 30 mins by LC-MS/MS analysis; format: ADME, Microsome
# [3] = Metabolic stability in mouse liver microsomes assessed as half-life at 1 uM measured up to 60 mins by LC-MS/MS analysis; format: ADME, Microsome
# [4] = Metabolic stability in mouse liver assessed as intrinsic clearance at 1 uM measured up to 60 mins by LC-MS/MS analysis; format: ADME, tissue-based; details: read-out: CLH
SMILES,MIC (Staphylococcus aureus),CLint scaled at 1 µM [1],half-life at 1 µM [2],half-life at 1 µM [3],CLint scaled at 1 µM [4]
C=C[C@]1(C)C[C@@H](OC(=O)Cn2cc(-c3ccc(Cn4ccc5c(N)ncnc54)c(O)c3)nn2)[C@]2(C)[C@H](C)CC[C@]3(CCC(=O)[C@H]32)[C@@H](C)[C@@H]1O,0.06 µg/mL,–,–,–,–
C=C[C@]1(C)C[C@@H](OC(=O)Cn2cc(-c3ccc(Cn4ccnc4)nc3)nn2)[C@]2(C)[C@H](C)CC[C@]3(CCC(=O)[C@H]32)[C@@H](C)[C@@H]1O,1 µg/mL,60.3 L/h/kg,6.2 min,2.4 min,140 L/h/kg
C=C[C@]1(C)C[C@@H](OC(=O)Cn2cc(-c3cccc(C(=O)Nc4ccccc4)c3)nn2)[C@]2(C)[C@H](C)CC[C@]3(CCC(=O)[C@H]32)[C@@H](C)[C@@H]1O,0.25 µg/mL,–,–,–,–
C=C[C@]1(C)C[C@@H](OC(=O)Cn2cc(-c3ccc(Cn4ccnc4N)cc3)nn2)[C@]2(C)[C@H](C)CC[C@]3(CCC(=O)[C@H]32)[C@@H](C)[C@@H]1O,0.5 µg/mL,–,–,–,–
C=C[C@]1(C)C[C@@H](OC(=O)Cn2cc(-c3ccc(Cn4ccc5c(N)ncnc54)cc3)nn2)[C@]2(C)[C@H](C)CC[C@]3(CCC(=O)[C@H]32)[C@@H](C)[C@@H]1O,0.06 µg/mL,–,–,–,–
C=C[C@]1(C)C[C@@H](OC(=O)Cn2cc(-c3ccc(Nc4ncnc5[nH]cnc45)cc3)nn2)[C@]2(C)[C@H](C)CC[C@]3(CCC(=O)[C@H]32)[C@@H](C)[C@@H]1O,0.12 µg/mL,17.8 L/h/kg,23.4 min,1.76 min,187 L/h/kg
C=C[C@]1(C)C[C@@H](OC(=O)Cn2cc(-c3ccc(Cn4cnc5c(=O)[nH]cnc54)cc3)nn2)[C@]2(C)[C@H](C)CC[C@]3(CCC(=O)[C@H]32)[C@@H](C)[C@@H]1O,0.06 µg/mL,–,–,–,–
C=C[C@]1(C)C[C@@H](OC(=O)Cn2cc(-c3ccc(Cn4ccnc4)cc3)nn2)[C@]2(C)[C@H](C)CC[C@]3(CCC(=O)[C@H]32)[C@@H](C)[C@@H]1O,0.25 µg/mL,–,–,–,–
C=C[C@]1(C)C[C@@H](OC(=O)Cn2cc(-c3ccc(NC(=O)c4ccc(OC)cc4)cc3)nn2)[C@]2(C)[C@H](C)CC[C@]3(CCC(=O)[C@H]32)[C@@H](C)[C@@H]1O,8 µg/mL,–,–,–,–
C=C[C@]1(C)C[C@@H](OC(=O)Cn2cc(-c3ccc(Cn4cnc(CO)c4)nc3)nn2)[C@]2(C)[C@H](C)CC[C@]3(CCC(=O)[C@H]32)[C@@H](C)[C@@H]1O,2 µg/mL,–,–,–,–
C=C[C@]1(C)C[C@@H](OC(=O)Cn2cc(-c3ccnc(NC(=O)c4cnc(OC)cn4)c3)nn2)[C@]2(C)[C@H](C)CC[C@]3(CCC(=O)[C@H]32)[C@@H](C)[C@@H]1O,0.25 µg/mL,–,–,–,–
C=C[C@]1(C)C[C@@H](OC(=O)Cn2cc(-c3cncc(C(=O)Nc4ccc(N)cc4)c3)nn2)[C@]2(C)[C@H](C)CC[C@]3(CCC(=O)[C@H]32)[C@@H](C)[C@@H]1O,0.12 µg/mL,–,–,–,–
C=C[C@]1(C)C[C@@H](OC(=O)Cn2cc(-c3ccc(Cn4cnc5c(N)ncnc54)c(O)c3)nn2)[C@]2(C)[C@H](C)CC[C@]3(CCC(=O)[C@H]32)[C@@H](C)[C@@H]1O,–,–,–,0.56 min,586 L/h/kg
C=C[C@]1(C)C[C@@H](OC(=O)Cn2cc(-c3ccc(Cn4ccc(=O)[nH]c4=O)cc3)nn2)[C@]2(C)[C@H](C)CC[C@]3(CCC(=O)[C@H]32)[C@@H](C)[C@@H]1O,0.12 µg/mL,–,–,–,–
C=C[C@]1(C)C[C@@H](OC(=O)Cn2cc(-c3cncc(NC(=O)c4ccc(OC)cc4)c3)nn2)[C@]2(C)[C@H](C)CC[C@]3(CCC(=O)[C@H]32)[C@@H](C)[C@@H]1O,0.06 µg/mL,219 L/h/kg,1.7 min,0.56 min,591 L/h/kg
C=C[C@]1(C)C[C@@H](OC(=O)Cn2cc(-c3ccc(Cn4ccc(N)nc4=O)nc3)nn2)[C@]2(C)[C@H](C)CC[C@]3(CCC(=O)[C@H]32)[C@@H](C)[C@@H]1O,8 µg/mL,–,–,–,–
C=C[C@]1(C)C[C@@H](OC(=O)Cn2cc(-c3cccc(NC(=O)c4ccc(OC)nc4)c3)nn2)[C@]2(C)[C@H](C)CC[C@]3(CCC(=O)[C@H]32)[C@@H](C)[C@@H]1O,0.12 µg/mL,–,–,–,–
C=C[C@]1(C)C[C@@H](OC(=O)Cn2cc(-c3cncc(NC(=O)c4ccc(OC)nc4)c3)nn2)[C@]2(C)[C@H](C)CC[C@]3(CCC(=O)[C@H]32)[C@@H](C)[C@@H]1O,0.12 µg/mL,154 L/h/kg,2.4 min,0.57 min,574 L/h/kg
C=C[C@]1(C)C[C@@H](OC(=O)Cn2cc(-c3ccc(Cn4cnc5c(=O)[nH]c(N)nc54)cc3)nn2)[C@]2(C)[C@H](C)CC[C@]3(CCC(=O)[C@H]32)[C@@H](C)[C@@H]1O,2 µg/mL,–,–,–,–
C=C[C@]1(C)C[C@@H](OC(=O)Cn2cc(-c3cccc(NC(=O)c4ccccc4)c3)nn2)[C@]2(C)[C@H](C)CC[C@]3(CCC(=O)[C@H]32)[C@@H](C)[C@@H]1O,0.25 µg/mL,–,–,–,–

SMILES,MIC (Staphylococcus aureus),CLint scaled at 1 µM [1],half-life at 1 µM [2],half-life at 1 µM [3],CLint scaled at 1 µM [4]
C=C[C@]1(C)C[C@@H](OC(=O)Cn2cc(-c3cccc(Oc4nc(N)nc5[nH]cnc45)c3)nn2)[C@]2(C)[C@H](C)CC[C@]3(CCC(=O)[C@H]32)[C@@H](C)[C@@H]1O,0.12 µg/mL,–,–,–,–
C=C[C@]1(C)C[C@@H](OC(=O)Cn2cc(-c3ccc(C(O)c4ccc5c(N)ncnn45)cc3)nn2)[C@]2(C)[C@H](C)CC[C@]3(CCC(=O)[C@H]32)[C@@H](C)[C@@H]1O (stereo not given in full),0.06 µg/mL,–,–,–,–
C=C[C@]1(C)C[C@@H](OC(=O)Cn2cc(-c3cncc(C(=O)Nc4ccccn4)c3)nn2)[C@]2(C)[C@H](C)CC[C@]3(CCC(=O)[C@H]32)[C@@H](C)[C@@H]1O,0.06 µg/mL,–,–,–,–
O=C(O)Cc1ccccc1Nc1c(Cl)cccc1Cl [DICLOFENAC],–,–,–,20.2 min,16.3 L/h/kg
C=C[C@]1(C)C[C@@H](OC(=O)Cn2cc(-c3ccc(C(=O)c4ccc5c(N)ncnn45)cn3)nn2)[C@]2(C)[C@H](C)CC[C@]3(CCC(=O)[C@H]32)[C@@H](C)[C@@H]1O,0.06 µg/mL,221 L/h/kg,1.7 min,0.54 min,> 600 L/h/kg
C=C[C@]1(C)C[C@@H](OC(=O)Cn2cc(-c3ccc(Cn4ccc5c(N)ncnc54)c(OC)c3)nn2)[C@]2(C)[C@H](C)CC[C@]3(CCC(=O)[C@H]32)[C@@H](C)[C@@H]1O,0.12 µg/mL,310 L/h/kg,1.2 min,0.68 min,486 L/h/kg
C=C[C@]1(C)C[C@@H](OC(=O)Cn2cc(-c3ccc(CNc4cc(N)ncn4)cc3)nn2)[C@]2(C)[C@H](C)CC[C@]3(CCC(=O)[C@H]32)[C@@H](C)[C@@H]1O,0.03 µg/mL,289 L/h/kg,1.3 min,0.55 min,> 600 L/h/kg
C=C[C@]1(C)C[C@@H](OC(=O)Cn2cc(-c3cncc(NC(=O)c4c[nH]c(=O)cn4)c3)nn2)[C@]2(C)[C@H](C)CC[C@]3(CCC(=O)[C@H]32)[C@@H](C)[C@@H]1O,1 µg/mL,–,–,–,–
C=C[C@]1(C)C[C@@H](OC(=O)Cn2cc(-c3cncc(C(O)c4ccc5c(N)ncnn45)c3)nn2)[C@]2(C)[C@H](C)CC[C@]3(CCC(=O)[C@H]32)[C@@H](C)[C@@H]1O (stereo not given in full),0.25 µg/mL,68.8 L/h/kg,5.4 min,2.5 min,131 L/h/kg
C=C[C@]1(C)C[C@@H](OC(=O)Cn2cc(-c3ccc(C(O)c4ccc5c(N)ncnn45)cn3)nn2)[C@]2(C)[C@H](C)CC[C@]3(CCC(=O)[C@H]32)[C@@H](C)[C@@H]1O (stereo not given in full),0.03 µg/mL,275 L/h/kg,1.4 min,0.66 min,500 L/h/kg
C=C[C@]1(C)C[C@@H](OC(=O)Cn2cc(-c3ccc(C(O)c4ccc5c(N)ncnn45)nc3)nn2)[C@]2(C)[C@H](C)CC[C@]3(CCC(=O)[C@H]32)[C@@H](C)[C@@H]1O (stereo not given in full),0.03 µg/mL,284 L/h/kg,1.3 min,0.74 min,447 L/h/kg
C=C[C@]1(C)C[C@@H](OC(=O)Cn2cc(-c3ccc(Cn4cc(C)c(=O)[nH]c4=O)nc3)nn2)[C@]2(C)[C@H](C)CC[C@]3(CCC(=O)[C@H]32)[C@@H](C)[C@@H]1O,0.12 µg/mL,–,–,–,–
C=C[C@]1(C)C[C@@H](OC(=O)Cn2cc(-c3cccc(C(=O)Nc4ncnc5[nH]cnc45)c3)nn2)[C@]2(C)[C@H](C)CC[C@]3(CCC(=O)[C@H]32)[C@@H](C)[C@@H]1O,0.12 µg/mL,140 L/h/kg,2.7 min,1.2 min,276 L/h/kg
C=C[C@]1(C)C[C@@H](OC(=O)Cn2cc(-c3ccc(CNc4cc(N)ncn4)nc3)nn2)[C@]2(C)[C@H](C)CC[C@]3(CCC(=O)[C@H]32)[C@@H](C)[C@@H]1O,0.06 µg/mL,–,–,–,–
C=C[C@]1(C)C[C@@H](OC(=O)Cn2cc(-c3cccc(Oc4ncnc5[nH]cnc45)c3)nn2)[C@]2(C)[C@H](C)CC[C@]3(CCC(=O)[C@H]32)[C@@H](C)[C@@H]1O,0.12 µg/mL,–,–,–,–
C=C[C@]1(C)C[C@@H](OC(=O)Cn2cc(-c3ccc(Cn4cnc5c(=O)[nH]c(N)nc54)nc3)nn2)[C@]2(C)[C@H](C)CC[C@]3(CCC(=O)[C@H]32)[C@@H](C)[C@@H]1O,8 µg/mL,–,–,–,–
C=C[C@]1(C)C[C@@H](OC(=O)Cn2cc(-c3cncc(C(=O)Nc4ccc(OC)cc4)c3)nn2)[C@]2(C)[C@H](C)CC[C@]3(CCC(=O)[C@H]32)[C@@H](C)[C@@H]1O,0.12 µg/mL,–,–,–,–
C=C[C@]1(C)C[C@@H](OC(=O)Cn2cc(-c3ccc(Cn4cncc4CO)nc3)nn2)[C@]2(C)[C@H](C)CC[C@]3(CCC(=O)[C@H]32)[C@@H](C)[C@@H]1O,2 µg/mL,–,–,–,–
C=C[C@]1(C)C[C@@H](OC(=O)Cn2cc(-c3ccc(NC(=O)c4ccccc4)cc3)nn2)[C@]2(C)[C@H](C)CC[C@]3(CCC(=O)[C@H]32)[C@@H](C)[C@@H]1O,4 µg/mL,–,–,–,–
